Data published in patent publication US11795460B2, “Compositions and methods for TTR gene editing and treating ATTR amyloidosis” (Intellia Therapeutics, Inc., priority 2017, dated 2023).

What was measured:
TTR [1] = assay: TTR editing in primary human hepatocytes transfected with Spy Cas9 protein (RNP) loaded with dgRNAs (Table 8); format: cell-based; conditions: dgRNA transfected with Spy Cas9 protein (RNP)
Procedure, shortened: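 Primary human hepatocytes were lipofected (RNAiMAX) with RNP of Spy Cas9 (10 nM) plus pre-annealed crRNA (10 nM) and trRNA (10 nM) and harvested 24, 48 or 72 h later. Target-site amplicons were sequenced on Illumina MiSeq and aligned to hg38; percent editing = reads with indels or substitutions over total reads.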

TTR [2] = assay: TTR editing in primary cyno hepatocytes electroporated with Spy Cas9 protein and dgRNAs (Tables 10, 11); format: cell-based, cynomolgus monkey; conditions: Table 10; primary cyno hepatocytes electroporated with Spy Cas9 protein (RNP) and dgRNAs
Description: Primary liver hepatocytes. Primary human liver hepatocytes (PHH) and primary cynomolgus liver hepatocytes (PCH) (Gibco) were cultured per the manufacturer's protocol (Invitrogen, protocol 11.28.2012). In brief, the cells were thawed and resuspended in hepatocyte thawing medium with supplements (Gibco, Cat. CM7000) followed by centrifugation at 100 g for 10 minutes for human and 80 g for 4 minutes for cyno. The supernatant was discarded and the pelleted cells resuspended in hepatocyte plating medium plus supplement pack (Invitrogen, Cat. A1217601 and CM3000). Cells were counted and plated on Bio-coat collagen I coated 96-well plates (ThermoFisher, Cat. 877272) at a density of 33,000 cells/well for human or 60,000 cells/well for cyno (or 65,000 cells/well when assaying effects on TTR protein, described further below). Plated cells were allowed to settle and adhere for 6 or 24 hours in a tissue culture incubator at 37° C. and 5% CO2 atmosphere. After incubation cells were checked for monolayer formation and media was replaced with hepatocyte culture medium with serum-free supplement pack (Invitrogen, Cat. A1217601 and CM4000).
[…] formation was performed prior to electroporation or transfection of Spy Cas9 protein loaded with guide RNAs (RNPs) onto cells. For dual guide (dgRNAs), individual crRNA and trRNA was pre-annealed by mixing equivalent amounts of reagent and incubating at 95° C. for 2 min and cooling to room temperature. Single guide (sgRNAs) were boiled at 95° C. for 2 min and cooling to room temperature. The boiled dgRNA or sgRNA was incubated with Spy Cas9 protein in Optimem for 10 minutes at room temperature to form a ribonucleoprotein (RNP) complex.
For RNP electroporation into primary human and cyno hepatocytes, the cells are thawed and resuspended in Lonza electroporation Primary Cell P3 buffer at a concentration of 2500 cells per μL for human hepatocytes and 3500 cells per μL for cyno hepatocytes. A volume of 20 μL of resuspended cells and 5 μL of RNP are mixed together per guide. 20 μL of the mixture is placed into a Lonza electroporation plate. The cells were electroporated using the Lonza nucleofector with the preset protocol EX-147. Post electroporation, the cells are transferred into a Biocoat plate containing pre-warmed maintenance media and placed in a tissue culture incubator at 37° C. and 5% CO2.
Transfected cells were harvested post-transfection at 24, 48, or 72 hours. The genomic DNA was extracted from each well of a 96-well plate using 50 μL/well BuccalAmp DNA Extraction solution (Epicentre, Cat. QE09050) per manufacturer's protocol. All DNA samples were subjected to PCR and subsequent NGS analyses, as described herein.
To quantitatively determine the efficiency of editing at the target location in the genome, sequencing was utilized to identify the presence of insertions and deletions introduced by gene editing.
Primers were designed around the target site within the gene of interest (e.g. TTR), and the genomic area of interest was amplified.
Additional PCR was performed per the manufacturer's protocols (Illumina) to add chemistry for sequencing. The amplicons were sequenced on an Illumina MiSeq instrument. The reads were aligned to a reference genome (e.g., the human reference genome (hg38), the cynomologus reference genome (mf5), the rat reference genome (rn6), or the mouse reference genome (mm10)) after eliminating those having low quality scores. The resulting files containing the reads were mapped to the reference genome (BAM files), where reads that overlapped the target region of interest were selected and the number of wild type reads versus the number of reads which contain an insertion, substitution, or deletion was calculated.
The editing percentage (e.g., the “editing efficiency” or “percent editing” or “indel frequency”) is defined as the total number of sequence reads with insertions/deletions (“indels”) or substitutions over the total number of sequence reads, including wild type. […]

| Sequence | Avg % Deletion (TTR [1]) [%] | Avg % Edit (TTR [1]) [%] | Avg % Insert (TTR [1]) [%] | Avg % Deletion (TTR [2]) [%] | Avg % Edit (TTR [2]) [%] | Avg % Insert (TTR [2]) [%] |
| --- | --- | --- | --- | --- | --- | --- |
| AAAGGCUGCUGAUGACACCU (tested as dual guide RNA, chemistry not given here) [CR003353] | 2.16 | 61.54 | 59.38 | 0.08 | 4.75 | 4.67 |
| AAAGUUCUAGAUGCUGUCCG (tested as dual guide RNA, chemistry not given here) [CR003346] | 1.84 | 4.11 | 2.27 | 0.09 | 1.91 | 1.82 |
| AAAUAGACACCAAAUCUUAC (tested as dual guide RNA, chemistry not given here) [CR003366] | 4.79 | 42.74 | 37.95 | 0.90 | 18.52 | 17.62 |
| AAGUGCCUUCCAGUAAGAUU (tested as dual guide RNA, chemistry not given here) [CR003368] | 1.00 | 34.83 | 33.83 | 0.26 | 18.56 | 18.30 |
| AAUAGGAGUAGGGGCUCAGC (tested as dual guide RNA, chemistry not given here) [CR003384] | 0.17 | 3.56 | 3.39 | 1.25 | 3.75 | 2.50 |
| ACACAAAUACCAGUCCAGCA (tested as dual guide RNA, chemistry not given here) [CR003339] | 36.21 | 45.06 | 8.85 | 4.02 | 8.95 | 4.93 |
| ACCUCUGCAUGCUCAUGGAA (tested as dual guide RNA, chemistry not given here) [CR003371] | 1.57 | 18.80 | 17.23 | 0.14 | 1.83 | 1.69 |
| ACGUGUCUUCUCUACACCCA (tested as dual guide RNA, chemistry not given here) [CR005302] | 0.97 | 48.29 | 47.32 | 0.08 | 1.34 | 1.26 |
| ACUGAGGAGGAAUUUGUAGA (tested as dual guide RNA, chemistry not given here) [CR003363] | 6.18 | 27.65 | 21.47 | 2.39 | 15.64 | 13.24 |
| AGACACCAAAUCUUACUGGA (tested as dual guide RNA, chemistry not given here) [CR003367] | 15.13 | 31.19 | 16.06 | – | – | – |
| AGCCUUUCUGAACACAUGCA (tested as dual guide RNA, chemistry not given here) [CR003351] | 16.36 | 40.28 | 23.92 | – | – | – |
| AGGCAGUCCUGCCAUCAAUG (tested as dual guide RNA, chemistry not given here) [CR003348] | 9.44 | 23.18 | 13.74 | – | – | – |
| AGUCCCUCAUUCCUUGGGAU (tested as dual guide RNA, chemistry not given here) [CR003392] | 0.14 | 10.07 | 9.93 | 0.38 | 7.02 | 6.63 |
| AGUGAGUCUGGAGAGCUGCA (tested as dual guide RNA, chemistry not given here) [CR003359] | 8.51 | 59.47 | 50.96 | 5.51 | 46.17 | 40.66 |
| AUACCAGUCCAGCAAGGCAG (tested as dual guide RNA, chemistry not given here) [CR003338] | 2.22 | 61.34 | 59.13 | 0.05 | 44.94 | 44.89 |
| AUAGGAGUAGGGGCUCAGCA (tested as dual guide RNA, chemistry not given here) [CR003383] | 0.24 | 4.76 | 4.52 | 4.55 | 8.86 | 4.31 |
| AUGCAGCUCUCCAGACUCAC (tested as dual guide RNA, chemistry not given here) [CR003358] | 5.67 | 31.62 | 25.95 | 1.46 | 20.47 | 19.01 |
| AUUGGUGACGACAGCCGUGG (tested as dual guide RNA, chemistry not given here) [CR003389] | 0.68 | 19.87 | 19.19 | 0.78 | 18.83 | 18.05 |
| CAGAGGACACUUGGAUUCAC (tested as dual guide RNA, chemistry not given here) [CR003343] | 1.63 | 43.25 | 41.61 | – | – | – |
| CCCAGAGGCAAAUGGCUCCC (tested as dual guide RNA, chemistry not given here) [CR003355] | 1.42 | 19.11 | 17.69 | – | – | – |
| CUGCUCCUCCUCUGCCUUGC (tested as dual guide RNA, chemistry not given here) [CR003335] | 1.63 | 51.14 | 49.51 | – | – | – |
| CUUCUCUACACCCAGGGCAC (tested as dual guide RNA, chemistry not given here) [CR003342] | 0.81 | 20.66 | 19.85 | – | – | – |
| GCAACUUACCCAGAGGCAAA (tested as dual guide RNA, chemistry not given here) [CR003356] | 1.29 | 7.53 | 6.24 | – | – | – |
| GCAGGGCGGCAAUGGUGUAG (tested as dual guide RNA, chemistry not given here) [CR003380] | 0.46 | 8.17 | 7.71 | – | – | – |
| GCGGCAAUGGUGUAGCGGCG (tested as dual guide RNA, chemistry not given here) [CR003377] | 0.31 | 12.77 | 12.45 | – | – | – |
| UUCUUUGGCAACUUACCCAG (tested as dual guide RNA, chemistry not given here) [CR003357] | 0.90 | 49.35 | 48.45 | – | – | – |
